According to PubChem BioAssay AID687005 (Broad Institute, 2013):
Records with an inconclusive call do not appear. Calls of active or inactive are those of the source.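 How the source made its calls: active means Compounds that reduce signal, with fitted half-maximal dose at or under twice the top valid tested dose; inconclusive means Poor fit, or flat curve losing 30 to 70% of signal; inactive means Potency past limit, flat within 30%, or opposite direction.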

Test: HEK293T cell cytotoxicity, dose response, cytotoxicity control, ATP luminescence, cherry-pick samples (AID 687005)
Settings: HEK293T viability, ATP luminescence (CellTiter-Glo), 48 h; at 21 µM (top of the series)

Structure (SMILES) | activity change, negative = cytotoxicity
Cc1ccc(S(=O)(=O)N[C@@H]2CCCN(Cc3cccc(OCCO)c3)C2)cc1 | 0.167% (inactive)

Same assay, conditions: HEK293T viability, ATP luminescence (CellTiter-Glo), 48 h; at 23.5 µM (top of the series)

Structure (SMILES) | activity change, negative = cytotoxicity
N#Cc1ccc(-c2ccc3c(c2)[C@H]2[C@H](CCN2C(=O)Cc2ccccc2)[C@@H](CO)N3)cc1 | -73.4% (inactive)

Same assay, conditions: HEK293T viability, ATP luminescence (CellTiter-Glo), 48 h; at 26 µM (top of the series)

Structure (SMILES) | activity change, negative = cytotoxicity
COc1ccc(NC(=O)Nc2ccc3c(c2)C(=O)N([C@@H](C)CO)C[C@@H](C)[C@H](CN(C)C(=O)Cc2ccccc2)OCCCC[C@H](C)O3)cc1 | -2.88% (inactive)
C[C@@H](O)C#Cc1ccc([C@@H]2[C@H]3CN(CC4CC4)CCCCN3[C@H]2CO)cc1 | 34.5% (inactive)
COc1ccc(S(=O)(=O)Nc2ccc3c(c2)C(=O)N([C@@H](C)CO)C[C@H](C)[C@@H](CN(C)C)OCCCC[C@H](C)O3)cc1 | -9.62% (inactive)
Cc1cccc(C)c1NC(=O)C(C)N1CCCCC1 (stereo unspecified) | 6.43% (inactive)
CC(C)NC(=O)N(C)C[C@H]1Oc2c(NS(=O)(=O)c3ccc(Cl)cc3)cccc2C(=O)N([C@@H](C)CO)C[C@@H]1C | -20.3% (inactive)
C[C@H]1CN([C@@H](C)CO)C(=O)c2cc(-c3cncnc3)cnc2O[C@H]1CN(C)C(=O)c1ccccc1F | 4.74% (inactive)
Cc1c(C(=O)NC(=S)Nc2ccccc2N2CCCC2)cccc1[N+](=O)[O-] | -4.96% (inactive)
C[C@@H]1CN([C@@H](C)CO)C(=O)c2cc(NC(=O)C3CC3)ccc2O[C@H]1CN(C)CC1CCCCC1 | -17.8% (inactive)
CNC[C@@H]1Oc2c(NS(=O)(=O)c3ccc(Cl)cc3)cccc2C(=O)N([C@H](C)CO)C[C@H]1C | 24.2% (inactive)
Cc1ccc(C)c(NC(=O)C2(C)CCN2C(=O)C(C)C)c1 (stereo unspecified) | -19.7% (inactive)
Cc1ccc(S(=O)(=O)N2C[C@@H](O)COC[C@@H]3O[C@H](CC(=O)NCc4ccc5c(c4)OCO5)CC[C@H]32)cc1 | 46.9% (inactive)
C[C@H](CO)N1C[C@H](C)[C@H](CN(C)C(=O)Nc2cccc(F)c2)Oc2ncc(C#CCN(C)C)cc2C1=O | -20.2% (inactive)
CC(C)CC#Cc1cnc2c(c1)C(=O)N([C@@H](C)CO)C[C@H](C)[C@H](CN(C)C(=O)c1ccc3c(c1)OCO3)O2 | 16.5% (inactive)
Cc1ccc(S(=O)(=O)Nc2ccc3c(c2)C(=O)N([C@@H](C)CO)C[C@H](C)[C@H](CN(C)S(=O)(=O)c2ccc(Cl)cc2)OCCCC[C@@H](C)O3)cc1 | -26.9% (inactive)
C[C@@H]1CN([C@H](C)CO)C(=O)c2c(c3ccccc3n2C)-c2ccccc2CO[C@H]1CN(C)S(=O)(=O)c1cccs1 | 1.01% (inactive)
O=C(C1CCOCC1)N1C[C@H]2[C@@H](c3ccccc31)[C@@H](CO)N2Cc1ccccc1Cl | 3.34% (inactive)
CNC[C@@H]1OCCCC[C@H](C)Oc2ccc(NC(=O)c3ccccc3)cc2C(=O)N([C@@H](C)CO)C[C@@H]1C | 6.33% (inactive)
CC(C)NC(=O)NCC[C@H]1CC[C@H](NC(=O)CN(C)C)[C@H](CO)O1 | 7.79% (inactive)
Cc1ccccc1S(=O)(=O)N[C@H]1CC[C@H](CCNS(=O)(=O)c2cccc(F)c2)O[C@H]1CO | -6.73% (inactive)
CN(C)C(=O)c1ccc(-c2ccc([C@H]3[C@H](CO)N4CCCCN(CCC(F)(F)F)C[C@@H]34)cc2)cc1 | -23.6% (inactive)
COc1cccc(S(=O)(=O)N(C)C[C@H]2OCc3cnnn3CCCC(=O)N([C@H](C)CO)C[C@H]2C)c1 | 38.2% (inactive)
COC(=O)C1=C(C)N(Cc2ccc(F)cc2)C(=S)NC1c1cccc(Cl)c1 (stereo unspecified) | -1.12% (inactive)
COc1cccc(NC(=O)CN2CCN(S(=O)(=O)c3ccc(C(C)C)cc3)CC2)c1 | 35.1% (inactive)

Same assay, conditions: HEK293T viability, ATP luminescence (CellTiter-Glo), 48 h; at 30 µM (top of the series)

Structure (SMILES) | activity change, negative = cytotoxicity
COC(=O)C1=C(C)N(CC(C)C)C(=S)NC1c1cccc(F)c1 (stereo unspecified) | -13.7% (inactive)
